These results are taken from patent US20090012183A1, “Composition comprising polyphenol” (Conopco, Inc. d/b/a Unilever, priority 2007, published 2009).

One assay has as its system rat aorta. The conditions noted are these: cited from earlier work; for vasorelaxing effect: Chen and Pace Asciak, Gen. Pharmac. 27(2), 363-366 (1996).
The test system of assay [1] is 2nd order mesenteric artery side branches. As to the kind of experiment: Reactivity of isolated arteries: dilator effect during contraction induced by 40 mmol/L K+. More on the design: species or system Spontaneously Hypertensive Rats (SHR). As to the method: Segments of 2nd order mesenteric artery side branches were isolated from 14 weeks old male Spontaneously Hypertensive Rats (SHR). Two stainless-steel wires (diameter 40 μm) were inserted in the lumen of the arterial segments, which were then mounted in organ chambers between an isometric force transducer and a displacement device (Danish Myotechnology by J. P. Trading, Denmark). The organ chambers were filled with Krebs-Ringer bicarbonate solution which was maintained at 37° C. and continuously aerated with 95% O2 and 5% CO2. Before the actual experiments started, arterial segments were stretched to their individual optimal lumen diameter for mechanical performance, i.e. the diameter at which maximal contractile responses to noradrenaline ([…]) were obtained. In each experiment four second order mesenteric resistance arterial segments from one animal were mounted in individual organ chambers and studied in parallel. At the start of the experiments, all four arterial preparations were incubated during 20 min with capsaicin (1 μmol/L) to persistently desensitize sensory-motor nerves and to obtain a stable and considerable contractile response to potassium (K^+, 40 mmol/L). During all the experiments superoxide dismutase (SOD, 5 U/ml) was present, to preserve stability of the metabolites. We tested the effects of the 35 different phenolic compounds using a Plackett-Burman screening design. The experiment consisted of 5 separate saturated 8 run Plackett-burman designs. Each design contained a subset of 7 phenolic compounds (Factors): One of the compounds tested was trans-resveratrol (in this case compound 30). […] In this way, the effects of different exposure times to the mixtures (7, 30 and 90 min) on K+-induced contraction, could be evaluated. […] Effects of increasing concentrations of the solvent and of the mixes (0.1 to 100 umol/L) during contractile responses to 40 mmol/L K+, were calculated as % change of the level of pre-contraction. […]

With `O=c1c(O)c(-c2ccc(O)c(O)c2)oc2cc(O)cc(O)c12` [quercitin], the vasorelaxing effect result in the assay with rat aorta was “vasorelaxing effect”.

On to `Oc1ccc(C=Cc2cc(O)cc(O)c2)cc1` [resveratrol], for which the vasorelaxing effect result with rat aorta is on record as “vasorelaxing effect”. For the same compound, the “relaxation of the rat aorta” value with rat aorta (Fitzpatrick et al, Am. J. physiol. 265, H774-H778, 1993) is “did not relax”.

What is called EC50 is the midpoint of the concentration-response curve. As for `Oc1ccc(C=Cc2cc(O)cc(O)c2)cc1` [trans-resveratrol, 3,5,4′-trihydroxystilbene], the EC50 in assay [1] (Rattus norvegicus, isolated SHR mesenteric resistance arteries precontracted with 40 mmol/L K+, found by comparing mixtures (Plackett-Burman design), corrected for DMSO solvent, read-out: EC50 of dilation of the arteries) is 11.6 µM. Further, the “influence on the dilation of the arteries” value in assay [1] (at a low concentration, comparison of different mixtures) is recorded as “significant influence”. Moreover, the “concentration at which the maximum dilatation was obtained” value in assay [1] (isolated SHR mesenteric resistance arteries precontracted with 40 mmol/L K+, mixtures tested 0.1-100 umol/L) worked out at 100 µM.
